# What was measured:
# [1] = target: Dipeptidyl peptidase 2 (Homo sapiens, UniProt Q9UHL4); test: Inhibition of human recombinant DPP7 expressed in baculovirus-infected Sf9 cells by fluorescence plate reader method
# [2] = target: Dipeptidyl peptidase 9 (Homo sapiens, UniProt Q86TI2)
# Dipeptidyl peptidase 9, sequence (Q86TI2 whole entry): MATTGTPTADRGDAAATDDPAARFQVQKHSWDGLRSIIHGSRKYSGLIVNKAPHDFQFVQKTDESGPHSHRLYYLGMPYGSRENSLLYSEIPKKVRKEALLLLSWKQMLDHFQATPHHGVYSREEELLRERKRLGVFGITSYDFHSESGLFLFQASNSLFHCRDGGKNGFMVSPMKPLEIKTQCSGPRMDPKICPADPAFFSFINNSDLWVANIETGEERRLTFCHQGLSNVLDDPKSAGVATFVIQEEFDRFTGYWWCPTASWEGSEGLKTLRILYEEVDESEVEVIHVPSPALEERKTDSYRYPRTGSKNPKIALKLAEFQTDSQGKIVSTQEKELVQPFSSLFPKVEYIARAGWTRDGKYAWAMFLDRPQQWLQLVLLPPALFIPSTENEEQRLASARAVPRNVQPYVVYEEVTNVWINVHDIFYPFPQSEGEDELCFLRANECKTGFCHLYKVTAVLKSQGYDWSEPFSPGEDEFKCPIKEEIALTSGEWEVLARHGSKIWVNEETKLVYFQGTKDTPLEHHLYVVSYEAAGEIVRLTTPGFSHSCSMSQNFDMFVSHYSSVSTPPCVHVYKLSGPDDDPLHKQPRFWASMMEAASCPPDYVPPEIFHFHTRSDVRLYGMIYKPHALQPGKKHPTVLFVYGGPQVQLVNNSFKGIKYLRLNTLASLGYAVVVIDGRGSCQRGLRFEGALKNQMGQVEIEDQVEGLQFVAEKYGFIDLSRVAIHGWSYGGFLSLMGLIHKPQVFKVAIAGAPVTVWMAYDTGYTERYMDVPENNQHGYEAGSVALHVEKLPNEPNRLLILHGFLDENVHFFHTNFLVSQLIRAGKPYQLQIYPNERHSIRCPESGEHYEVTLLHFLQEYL
compound,measurement,setting,value
"COc1ccc(N2CCN(CCNCC(=O)N3CCCC3C#N)C2=O)cc1OC (single isomer, unassigned)",IC50,[1],> 100 µM
same,IC50,[2],> 100 µM

# — ChEMBL document CHEMBL1153009, “Synthesis and evaluation of structurally constrained imidazolidin derivatives as potent dipeptidyl peptidase IV inhibitors” (Eur J Med Chem, 2009)
